Reference: EP0956287B1, “3-ARYL-2-(1-SUBSTITUTED-4-PIPERIDINYL)-1(1-DI)OXO-3H-BENZO D]-ISOTHIAZOLE DERIVATIVES, THEIR PREPARATION AND THEIR USE AS MODULATORS OF NEUROTRANSMITTER FUNCTION” (Aventis Pharmaceuticals Inc., priority 1996, dated 1998)
Counter-ions that a name gives are not always drawn.

Assays:
Type in all cases: biochemical
[1] = target: T1, norepinephrine (NE) uptake (Rattus norvegicus, UniProt Q63380); experiment: Inhibition of [3H]-norepinephrine uptake in rat whole brain or hypothalamic synaptosomes; settings: [3H]-NE 50 nM
T1 construct: Either whole brain minus cerebella or hypothalamus is weighed and homogenized in 9 volumes of ice-cold 0.32 M sucrose; from tissue; host or cells: rat whole brain minus cerebella or hypothalamus, crude synaptosomal supernatant (S1)
Protocol: Inhibition of [^3H]-Norepinephrine Uptake in Rat Whole Brain or Hypothalamic Synaptosomes
This assay is used as a biochemical screen for potential antidepressants which block norepinephrine uptake.
(§1) A. Animals: Male CR Wistar rats (100-125 g).
(§2) 1. Krebs-Henseleit Bicarbonate Buffer, pH 7.4 (KHBB): Make a 1 liter batch, containing the following salts.
Aerate for 60 minutes with 95% O2/5% CO2, check pH (7.4±0.1); then add bovine serum albumin (Sigma cat#A-7906) 1 mg/ml. 2. 0.32M Sucrose: 21.9 g of sucrose, bring to 200 ml. 3. L(-)-Norepinephrine bitartrate is obtained from Sigma Chemical Co. A 0.1 mM stock solution is made up in 0.01 N HCl. This is used to dilute the specific activity of theradiolabeled NE. 4. Levo-[Ring-2,5,6-^3H]-Norepinephrine (40-50 Ci/mmol) is obtained from New England Nuclear. The final desired concentration of [^3H]-NE in the assay is 50 nM. The dilution factor is 0.8. Therefore, the KHBB is made up to contain 62.5 nM [^3H]-NE. Add to 100 ml of KHBB.
(§3) 5. For most assays, a 1 mM stock solution of the test compound is made up in a suitable solvent and serially diluted such that the final concentration in the assay ranges from 2 x 10^-8 to 2 x 10^-5 M. Seven concentrations are used for each assay. Higher or lower concentrations may be used depending on the potency of the compound.
(§4) Male Wistar rats are decapitated and the brain rapidly removed. Either whole brain minus cerebella or hypothalamus is weighed and homogenized in 9 volumes of ice-cold 0.32 M sucrose using a Potter-Elvejhem homogenizer. Homogenization should be done with 4-5 up and down strokes at medium speeds to minimize synaptosome lysis. TH homogenate is centrifuged at 1000 g for 10 minutes at 0° 4°C. The supernatant (S1) is decanted and is used for uptake experiments.
• 800 µl KHBB [^3H]-NE • 20 µl Vehicle or appropriate drug concentration • 200 µl Tissue suspension
Tubes are incubated at 37°C, under a 95% O2/5% CO2 atmosphere for 5 minutes. For each assay, 3 tubes are incubated with 20 µl of vehicle at 0°C in a ice bath. After incubation all tubes are immediately centrifuged at 4000 g for 10 minutes. The supernatant fluid is aspirated and the pellets dissolved by adding 1 ml of solubilizaer (Triton® X-100 + 50% EtOH, 1:4 v/v). The tubes are vigorously shaken decanted into scientillation vials, and counted in 10 ml of Liquiscint® scintillation countering cocktail. Active uptake is the difference between cpm at 37°C. and 0°C. The percent inhibition at each drug concentration is the mean of three determinations IC50 values are derived from log-probit analysis.

[2] = target: T2, serotonin (5HT) uptake (Rattus norvegicus, UniProt P31652); experiment: Inhibition of [3H]-serotonin uptake in rat whole brain synaptosomes; settings: [3H]-5 HT 50 nM
T2 construct: Whole brain minus cerebella is weighed and homogenized in 9 volumes of ice-cold 0.32 M sucrose; from tissue; host or cells: rat whole brain minus cerebella, crude synaptosomal supernatant (S1)
Protocol: Inhibition of [^3H]-Serotonin Uptake in Rat Whole Brain Synaptosomes
This assay is used a biochemical screen for compounds which block serotonin (5 HT) uptake, which may be useful as antidepressants and for the treatment of personality disorders such as obsessive compulsive disorder.
as §1, §2
Aerate for 60 minutes with 95% O2/5% CO2, check pH (7.4±0.1). 2. 0.32 M Sucrose: 21.9 g of sucrose, bring to 200 ml. 3. Serotonin creatinine SO4 is obtained from Sigma Chemical Co. A 0.1 mM stock solution is made up in 0.01N HCl. This is used to dilute the specific activity of radiolabeled 5 HT. 4. 5-[1,2-^3H(N)]-Hydroxytryptamine creatinine sulfate (Serotonin), specific activity 20-30 Ci/mmol is obtained from New England Nuclear. The final desired concentration of ^3H-5 HT in the assay is 50 nM. The dilution factor is 0.8. Therefore, the KHBB is made up to contain 62.5 nM [^3H]--5 HT. Add to 100 ml of KHBB.
as §3, with “mM” for “mM stock”, “in” for “in a”
as §4, with “Whole” for “Either whole”, “cerebella” for “cerebella or hypothalamus”, “The” for “TH”, “0° -” for “0°”
• 800 µl KHBB + [^3H]-5 HT. • 20 µl Vehicle or appropriate drug concentration • 200 µl Tissue suspension
(§5) Tubes are incubated at 37°C under a 95% O2/5% CO2 atmosphere for 5 minutes. For each assay, 3 tubes are incubated with 20 µl of vehicle at 0°C in an ice bath. After incubation all tubes are immediately centrifuged at 4000 g for 10 minutes. The supernatant fluid is aspirated and the pellets dissolved by adding 1 ml of solubilizer (Triton® X-100 + 50% EtOH, 1:4 v/v). The tubes are vigorously shaken, decanted into scintillation vials, and counted in 10 ml of Liquicint® scintillation counting cocktail. Active uptake is the difference between cpm at 37°C and 0°C. The percent inhibition at each drug concentration is the mean of three determinations. IC50 values are derived from log-probit analysis.

[3] = target: T3, dopamine (DA) uptake (Rattus norvegicus, UniProt P23977); experiment: Inhibition of 3H-dopamine uptake in rat striatal synaptosomes; settings: head says whole brain synaptosomes, method uses striatal synaptosomes, 3H-DA 50 nM
T3 construct: Corpora striata are rapidly removed, weighed and homogenized in 9 volumes of ice-cold 0.32 M sucrose; from tissue; host or cells: rat corpora striata, crude synaptosomal supernatant (S1)
Protocol: Inhibition of ^3H-Dopamine Uptake in Rat Striatal Synaptosomes
this assay is used to show differential drug effects on dopamine uptake versus nerepppinephrine uptake and to identify therapeutic agents for diseases where the potentiation of dopaminergic activity may be helpful (e.g. Parkinson's Disease).
as §1
1. Krebs-Henseleit Bicarbonate Buffer, pH 7.4 (KHBB): Make a 1 liter batch containing the following salts:
Aerate for 60 minutes with 95% O2/5% CO2, check pH (7.4±0.1). 2. 0.32 M Sucrose: 21.9 g of sucrose, bring to 200 ml. 3. Dopamine HCl is obtained from Sigma Chemical Co. A 0.1 mM stock solution is made up in 0.01N HCI. This is used to dilute the specific activity of radiolabeled 5 HT. 4. 3,4-[8-^3H(N)]-Dihydroxyphenylethylamine (Dopamine), specific activity 4-34 Ci/mmol is obtained from New England Nuclear. The final desired concentration of ^3H-DA in the assay is 50 nM. The dilution factor is 0.9. Therefore, the KHBB is made up to contain 55.5 nM [^3H]-5 DA. Add to 100 ml of KHBB.
as §3, with “1mM” for “1 mM”
as §4, with “Corpora striata are rapidly removed,” for “Either whole brain minus cerebella or hypothalamus is”, “The” for “TH”, “0°-” for “0°”
• 900 µl KHBB + [^3H]-DA. • 20 µl Vehicle or appropriate drug concentration • 100 µl Tissue suspension
as §5, with “Liquiscint®” for “Liquicint®”

T2 sequence (P31652 whole entry): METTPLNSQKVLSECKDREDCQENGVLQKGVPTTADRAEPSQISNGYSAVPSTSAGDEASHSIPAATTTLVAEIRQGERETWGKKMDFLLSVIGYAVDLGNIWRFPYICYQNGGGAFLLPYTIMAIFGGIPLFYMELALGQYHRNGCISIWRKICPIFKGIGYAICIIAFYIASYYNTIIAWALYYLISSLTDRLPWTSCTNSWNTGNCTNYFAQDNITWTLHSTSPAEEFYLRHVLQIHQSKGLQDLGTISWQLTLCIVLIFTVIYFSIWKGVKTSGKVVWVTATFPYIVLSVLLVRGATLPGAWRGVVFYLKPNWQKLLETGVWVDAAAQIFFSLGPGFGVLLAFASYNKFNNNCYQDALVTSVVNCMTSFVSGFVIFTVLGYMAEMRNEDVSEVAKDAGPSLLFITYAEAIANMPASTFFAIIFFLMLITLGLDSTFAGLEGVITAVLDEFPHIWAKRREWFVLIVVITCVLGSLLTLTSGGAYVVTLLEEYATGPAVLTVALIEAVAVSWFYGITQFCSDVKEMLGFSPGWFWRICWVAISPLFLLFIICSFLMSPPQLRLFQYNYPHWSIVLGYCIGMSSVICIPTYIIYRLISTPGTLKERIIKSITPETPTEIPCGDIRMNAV
T3 sequence (P23977 whole entry): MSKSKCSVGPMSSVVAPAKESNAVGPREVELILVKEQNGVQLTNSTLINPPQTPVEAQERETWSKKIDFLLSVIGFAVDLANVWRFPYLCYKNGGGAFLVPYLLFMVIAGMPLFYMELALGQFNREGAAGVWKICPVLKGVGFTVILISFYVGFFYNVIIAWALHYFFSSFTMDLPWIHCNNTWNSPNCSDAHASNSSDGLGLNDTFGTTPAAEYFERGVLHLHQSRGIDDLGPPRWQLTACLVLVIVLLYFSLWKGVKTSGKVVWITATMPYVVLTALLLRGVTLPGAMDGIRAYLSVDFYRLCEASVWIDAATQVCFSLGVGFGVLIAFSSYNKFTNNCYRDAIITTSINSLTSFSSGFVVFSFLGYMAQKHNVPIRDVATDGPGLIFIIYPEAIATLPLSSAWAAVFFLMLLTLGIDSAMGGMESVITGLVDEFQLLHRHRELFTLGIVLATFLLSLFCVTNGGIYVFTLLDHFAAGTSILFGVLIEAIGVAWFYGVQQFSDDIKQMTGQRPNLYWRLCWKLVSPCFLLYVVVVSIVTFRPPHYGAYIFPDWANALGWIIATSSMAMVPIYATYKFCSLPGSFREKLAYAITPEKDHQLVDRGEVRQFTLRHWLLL
T1 sequence (Q63380 1-617): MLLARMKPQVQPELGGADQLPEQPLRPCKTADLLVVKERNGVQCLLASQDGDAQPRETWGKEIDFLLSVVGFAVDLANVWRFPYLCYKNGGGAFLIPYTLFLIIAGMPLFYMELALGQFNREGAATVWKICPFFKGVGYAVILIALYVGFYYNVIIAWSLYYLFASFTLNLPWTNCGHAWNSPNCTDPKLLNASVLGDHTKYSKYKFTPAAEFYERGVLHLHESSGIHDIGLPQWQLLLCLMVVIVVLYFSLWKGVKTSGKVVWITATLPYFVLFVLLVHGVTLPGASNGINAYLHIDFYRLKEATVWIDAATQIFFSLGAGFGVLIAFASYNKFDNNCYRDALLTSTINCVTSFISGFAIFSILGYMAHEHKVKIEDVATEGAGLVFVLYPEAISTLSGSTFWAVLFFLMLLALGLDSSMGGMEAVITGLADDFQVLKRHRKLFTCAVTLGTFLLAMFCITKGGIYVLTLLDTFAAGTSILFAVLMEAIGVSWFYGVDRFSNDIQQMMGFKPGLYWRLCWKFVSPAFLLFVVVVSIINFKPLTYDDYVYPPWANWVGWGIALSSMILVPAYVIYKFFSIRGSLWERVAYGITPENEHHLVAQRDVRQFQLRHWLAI

Compound | Whole brain synaptosomes % inhibition at 3.16 µm NE [1] | Whole brain synaptosomes % inhibition at 3.16 µm 5HT [2] | Whole brain synaptosomes % inhibition at 3.16 µm DA [3]
Cl.O=S1(=O)c2ccccc2C(c2ccc(F)cc2)N1C1CCNCC1 (stereo not drawn) [3-(4-Fluorophenyl)-2-(4-piperidinyl)-2,3-dihydrobenzo[d]isothiazole-1,1-dioxide hydrochloride] | 25.02% | 37.92% | 30.34%
O=C(O)/C=C\C(=O)O.O=C1c2ccccc2C(=O)N1CCCN1CCC(N2C(c3ccc(Cl)cc3)c3ccccc3S2(=O)=O)CC1 (stereo not drawn) [2-(3-{4-[3-(4-Chlorophenyl)-1,1-dioxo-3H-benzo[d]isothiazol-2-yl]piperidin-1-yl}propyl)-isoindol-1,3-dione maleate] | 28.37% | 29.02% | 57.36%
COc1cc(C(C)=O)ccc1OCCCN1CCC(N2C(c3ccc(Cl)cc3)c3ccccc3S2(=O)=O)CC1 (stereo not drawn) [1-[4-(3-{4-[3-(4-Chlorophenyl)-1,1-dioxo-3H-benzo[d]isothiazol-2-yl]-1-piperidin-1-yl}-propoxy)-3-methoxyphenyl]-ethanone maleate] | 55.23% | 48.78% | 67.94%
O=C(O)/C=C\C(=O)O.O=S1(=O)c2ccccc2C(c2ccc(Cl)cc2)N1C1CCN(CCO)CC1 (stereo not drawn) [2-{4-[3-(4-Chlorophenyl)-1,1-dioxo-3H-benzo[d]isothiazol-2-yl]-piperidin-1-yl}-ethanol maleate] | 8.71% | 3.68% | 18.71%
